Columns and labels:
[1] = target: T1, human 5-hydroxytryptamine-2C (h5-HT2C) receptor (Homo sapiens, UniProt P28335); assay: [125I]DOI binding to membranes of CHO cells expressing the human 5-HT2C receptor; settings: [125I]DOI radioligand, CHO cell membranes, room temperature 60 min; read-out: 5-HT2C Affinity Ki
T1 construct: expressed in transfected cells; host or cells: CHO (Chinese Hamster Ovary) cells; membranes
T1 sequence (P28335 33-458): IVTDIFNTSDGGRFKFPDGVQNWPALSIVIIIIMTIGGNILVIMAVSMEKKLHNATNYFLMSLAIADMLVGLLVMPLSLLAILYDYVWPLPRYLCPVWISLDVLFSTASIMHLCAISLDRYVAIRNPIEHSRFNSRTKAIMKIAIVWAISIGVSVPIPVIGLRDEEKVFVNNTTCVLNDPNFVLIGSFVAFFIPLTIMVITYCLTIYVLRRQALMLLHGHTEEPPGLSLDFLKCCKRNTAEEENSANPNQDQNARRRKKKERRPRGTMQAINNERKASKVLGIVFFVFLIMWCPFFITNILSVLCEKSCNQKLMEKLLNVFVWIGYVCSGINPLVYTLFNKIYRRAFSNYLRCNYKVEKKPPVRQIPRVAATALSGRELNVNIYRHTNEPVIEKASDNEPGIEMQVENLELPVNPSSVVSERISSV

human 5-HT2C receptor = target: T2, human 5-HT2C receptor (Homo sapiens, UniProt P28335); assay: 5-HT2C receptor-stimulated calcium mobilization (FLIPR) in CHO cells; format: cell-based; settings: for Emax: CHO, read-out: 5-HT2C Function Emax (%); for Emax / 5-HT2C Function Emax (%): percentage of the response observed with a maximally effective concentration of 5-HT; for EC50: calcium mobilization, CHO cells stably expressing human 5-HT2C, read-out: 5-HT2C Function EC50;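 as to all read-outs here: Fluo-3-AM fluorescence read on FLIPR every 1 s, agonist added after 10 baseline reads, response taken as peak minus lowest raw fluorescence count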
T2 sequence (P28335 33-458): T1 sequence (P28335 33-458)

Ki [1] [nM] | SMILES | also measured
176 | CNCC1Cc2cc(Cl)cc(-c3ccsc3)c2O1 (single isomer, unassigned; (-)) [Example 94, (−)-N-[(5-chloro-7-thien-3-yl-2,3-dihydro-1-benzofuran-2-yl)methyl]-N-methylamine] | –
319 | CC(C)(C)CCc1cccc2c1OC(CN)C2 (racemic) [Example 118, (±)-1-[7-(3,3-dimethylbutyl)-2,3-dihydro-1-benzofuran-2-yl]methanamine] | –
63 | COc1cccc(-c2cc(F)cc3c2OC(CN)C3)c1 (racemic) [Example 197, (±)-{[5-fluoro-7-(3-methoxyphenyl)-2,3-dihydro-1-benzofuran-2-yl]methyl}amine] | –
279 | Cc1cccc(Nc2cccc3c2OC(CN)C3)c1 (racemic) [Example 182, (±)-N-[2-(aminomethyl)-2,3-dihydro-1-benzofuran-7-yl]-N-(3-methylphenyl)amine] | –
136 | CNCC1Cc2cc(C(F)(F)F)cc(-c3cccc(Cl)c3Cl)c2O1 (racemic) [Example 524, (±)-N-methyl-1-[7-(2,3-dichlorophenyl)-5-(trifluoromethyl)-2,3-dihydro-1-benzofuran-2-yl]methanamine] | –
60 | NCC1Cc2c(F)ccc(-c3ccccc3)c2O1 (racemic) [Example 98, (±)-1-(4-fluoro-7-phenyl-2,3-dihydro-1-benzofuran-2-yl)methanamine] | –
88 | NCC1Cc2cc(-c3ccccc3Cl)cc(F)c2O1 (racemic) [Example 376, (±)-{[7-fluoro-5-(2-chlorophenyl)-2,3-dihydro-1-benzofuran-2-yl]methyl}amine] | –
246 | NCC1Cc2cccc(Nc3ccc(F)c(Cl)c3)c2O1 (racemic) [Example 193, (±)-N-[2-(aminomethyl)-2,3-dihydro-1-benzofuran-7-yl]-N-(3-chloro-4-fluorophenyl)amine] | –
91 | COc1ccc(-c2cccc3c2OC(CN)C3)c(OC)c1 (single isomer, unassigned; (+)) [Example 145, (+)-1-[7-(2,4-dimethoxyphenyl)-2,3-dihydro-1-benzofuran-2-yl]methanamine] | –
222 | NCC1Cc2cccc(Cc3ccccc3)c2O1 (racemic) [Example 15, (±)-1-(7-benzyl-2,3-dihydro-1-benzofuran-2-yl)methanamine] | –
3350 | CNCC1Cc2cc(-c3ccccc3OC)cc(F)c2O1 (racemic) [Example 532, (±)-{7-fluoro-5-[2-methoxyphenyl]-2,3-dihydro-1-benzofuran-2-yl}methyl)methylamine] | –
353 | NCC1Cc2cccc(Nc3ccc(C(F)(F)F)cc3)c2O1 (racemic) [Example 177, (±)-N-[2-(aminomethyl)-2,3-dihydro-1-benzofuran-7-yl]-N-[4-(trifluoromethyl)phenyl]amine] | –
141 | NCC1Cc2cccc(-c3cc(Cl)cc(Cl)c3)c2O1 (racemic) [Example 35, (±)-1-[7-(3,5-dichlorophenyl)-2,3-dihydro-1-benzofuran-2-yl]methanamine] | –
363 | NCC1Cc2cccc(Nc3cc(Cl)cc(Cl)c3)c2O1 (racemic) [Example 189, (±)-N-[2-(aminomethyl)-2,3-dihydro-1-benzofuran-7-yl]-N-(3,5-dichlorophenyl)amine] | –
419 | NCC1Cc2cccc(-c3cc(C(F)(F)F)cc(C(F)(F)F)c3)c2O1 (racemic) [Example 32, (±)-1-{7-[3,5-bis(trifluoromethyl)phenyl]-2,3-dihydro-1-benzofuran-2-yl}methanamine] | –
201 | NCC1Cc2cc(-c3ccccc3C(F)(F)F)cc(F)c2O1 (racemic) [Example 378, (±)-({7-fluoro-5-[2-(trifluoromethyl)phenyl]-2,3-dihydro-1-benzofuran-2-yl}methyl)amine] | –
84 | Cc1ccccc1-c1cccc2c1CC(CN)O2 (single isomer, unassigned; (-)) [Example 6, (−)-1-[4-(2-methylphenyl)-2,3-dihydro-1-benzofuran-2-yl]methanamine] | –
915 | CNCC1Cc2cc(-c3ccccc3F)cc(F)c2O1 (racemic) [Example 530, (±)-{[7-fluoro-5-(2-fluorophenyl)-2,3-dihydro-1-benzofuran-2-yl]methyl}methylamine] | –
171 | NCC1Cc2cccc(Nc3cc(F)cc(F)c3)c2O1 (racemic) [Example 186, (±)-N-[2-(aminomethyl)-2,3-dihydro-1-benzofuran-7-yl]-N-(3,5-difluorophenyl)amine] | –

Ki [1] [nM] | SMILES | also measured
255 | NCC1Cc2cc(C(F)(F)F)cc(-c3ccc(C(F)(F)F)cc3)c2O1 (racemic) [Example 327, (±)-{[5-(trifluoromethyl)-7-(4-(trifluoromethyl)phenyl)-2,3-dihydro-1-benzofuran-2-yl]methyl}amine] | –
55 | CC1(CN)Cc2cc(Cl)cc(-c3ccccc3)c2O1 (racemic) [Example 112, (±)-1-(5-chloro-2-methyl-7-phenyl-2,3-dihydro-1-benzofuran-2-yl)methanamine] | –
11 | NCC1Cc2cc(Cl)cc(-c3ccccc3)c2O1 (racemic) [Example 84, (±)-1-(5-chloro-7-phenyl-2,3-dihydro-1-benzofuran-2-yl)methanamine] | –
60 | CNCC1Cc2cc(OC)cc(-c3cc(Cl)ccc3OC)c2O1 (racemic) [Example 502, (±)-{[7-(5-chloro-2-methoxyphenyl)-5-methoxy-2,3-dihydro-1-benzofuran-2-yl]methyl}methylamine] | –
52 | CC(C)c1ccccc1-c1cccc2c1OC(CN)C2 (single isomer, unassigned; (-)) [Example 63, (−)-[7-(2-isopropylphenyl)-2,3-dihydro-1-benzofuran-2-yl]methylamine] | –
616 | CNCC1Cc2cc(-c3ccccc3Cl)cc(F)c2O1 (racemic) [Example 529, (±)-{[7-fluoro-5-(2-chlorophenyl)-2,3-dihydro-1-benzofuran-2-yl]methyl}methylamine] | –
127 | NCC1Cc2cccc(Nc3ccccc3F)c2O1 (racemic) [Example 194, (±)-N-[2-(aminomethyl)-2,3-dihydro-1-benzofuran-7-yl]-N-(2-fluorophenyl)amine] | –
161 | Cc1ccc(-c2cc(C(F)(F)F)cc3c2OC(CN)C3)cc1 (racemic) [Example 323, (±)-{[5-(trifluoromethyl)-7-(4-methylphenyl)-2,3-dihydro-1-benzofuran-2-yl]methyl}amine] | –
2730 | CNCC1Cc2cc(-c3ccccc3)cc(-c3ccc(Cl)cc3)c2O1 (racemic) [Example 507, (±)-{[7-(4-chlorophenyl)-5-phenyl-2,3-dihydro-1-benzofuran-2-yl]methyl}methylamine] | –
409 | CNCC1Cc2cc(-c3ccccc3C(F)(F)F)cc(F)c2O1 (racemic) [Example 531, (±)-{7-fluoro-5-[2-(trifluoromethyl)phenyl]-2,3-dihydro-1-benzofuran-2-yl}methyl)methylamine] | –
– | Cc1cccc(-c2cccc3c2OC(CN)C3)c1C (racemic) [Example 154, (±)-1-[7-(2,3-dimethylphenyl)-2,3-dihydro-1-benzofuran-2-yl]methanamine] | Emax (human 5-HT2C receptor): 90%; EC50 (human 5-HT2C receptor): 65 nM
– | Cc1cccc(C)c1-c1cc(Cl)cc2c1OC(CNC(C)C)C2 (racemic) [Example 272, (±)-N-{[5-chloro-7-(2,6-dimethylphenyl)-2,3-dihydro-1-benzofuran-2-yl]methyl}propan-2-amine] | Emax (human 5-HT2C receptor): 70%; EC50 (human 5-HT2C receptor): 845 nM
– | CNCC1Cc2cc(Cl)cc(-c3ccc(F)cc3F)c2O1 (racemic) [Example 467, (±)-{[5-chloro-7-(2,4-difluorophenyl)-2,3-dihydro-1-benzofuran-2-yl]methyl}methylamine] | Emax (human 5-HT2C receptor): 80%; EC50 (human 5-HT2C receptor): 257 nM
– | COc1cccc(-c2cc(F)cc3c2OC(CN)C3)c1OC (single isomer, unassigned; (+)) [Example 214, (+)-{[7-(2,3-dimethoxyphenyl)-5-fluoro-2,3-dihydro-1-benzofuran-2-yl]methyl}amine] | EC50 (human 5-HT2C receptor): 79 nM; 5-HT2C Function Emax (%) (human 5-HT2C receptor): 70%
– | CCNCC1Cc2cc(F)cc(-c3c(Cl)cccc3Cl)c2O1 (racemic) [Example 234, (±)-N-{[7-(2,6-dichlorophenyl)-5-fluoro-2,3-dihydro-1-benzofuran-2-yl]methyl}ethanamine] | Emax (human 5-HT2C receptor): 90%; EC50 (human 5-HT2C receptor): 11 nM
– | CNCC1Cc2cccc(-c3cc(Cl)ccc3C)c2O1 (racemic) [Example 431, (±)-[(N-methyl-1-[7-(5-chloro-2-methylphenyl)-2,3-dihydro-1-benzofuran-2-yl]methanamine] | Emax (human 5-HT2C receptor): 90%; EC50 (human 5-HT2C receptor): 63 nM
– | COc1cccc(-c2cc(F)cc3c2OC(CN)C3)c1OC (single isomer, unassigned; (-)) [Example 213, (−)-{[7-(2,3-dimethoxyphenyl)-5-fluoro-2,3-dihydro-1-benzofuran-2-yl]methyl}amine] | EC50 (human 5-HT2C receptor): 9 nM; 5-HT2C Function Emax (%) (human 5-HT2C receptor): 100%
– | CC(C)NCC1Cc2cc(F)cc(-c3c(Cl)cccc3Cl)c2O1 (racemic) [Example 236, (±)-N-{[7-(2,6-dichlorophenyl)-5-fluoro-2,3-dihydro-1-benzofuran-2-yl]methyl}propan-2-amine] | Emax (human 5-HT2C receptor): 70%; EC50 (human 5-HT2C receptor): 123 nM

— patent US7435837B2, “Dihydrobenzofuranyl alkanamine derivatives and methods for using same” (Wyeth, priority 2003, dated 2008)
